System: Carrageenan induzierten Rattenpfotenödem
Test: Carrageenan-induced rat paw oedema test
Format: in vivo, Ratte
Details: 10 mg/kg i.v.
Text: Die antiphlogistische Wirkung der erfindungsgemäßen Polysaccharide wurde im Carrageenan induzierten Rattenpfotenödemtest untersucht (Winter, C.A. et al., Proc. Soc. Exp. Biol. Med. 111, 544 (1962)).

COc1ccc2c(c1)c(CC(=O)O)c(C)n2C(=O)c1ccc(Cl)cc1 [Indometacin]
Hemmung des Rattenpfotenödems nach 8 Stunden: Indometacin 10 mg/kg i.v. 22,9%

Reference: patent EP0422618A1, “Polysaccharides with antiphlogistic activity, method for obtaining them and pharmaceutical compositions containing the same” (LOMAPHARM Rudolf Lohmann GmbH KG Pharmazeutische Fabrik, priority 1989, dated 1991)
